As usually defined, the IC50 is the midpoint of a concentration-inhibition curve.

Molecules are shown by their SMILES.

This is an account of results in patent US12492208B2, “Crystal of pyrimidine compound” (TAIHO PHARMACEUTICAL CO., LTD., priority 2020, dated 2025).

For data set [1], the system named is Ba/F3-HER2insYVMA cells. In words: Growth inhibitory activity against HER2 exon 20 insertion mutant expressing cell line. The format is cell-based. The note with it: Mus musculus, 72 h, 3 days, CellTiter-Glo 2.0, read-out: HER2ex20insYVMA cell growth inhibitory activity IC50 value. As to the method:
Growth inhibitory activity against the HER2 exon 20 insertion mutant was measured using Ba/F3 cells that were a mouse B lymphocyte precursor cell line, into which a human HER2 exon 20 insertion mutant gene had been introduced. The Ba/F3 cells were maintained in an RPMI-1640 medium (Thermo Fisher Scientific) supplemented with 10% fetal bovine serum (FBS), 100 U/mL penicillin, 100 μg/mL streptomycin (Thermo Fisher Scientific) and 1 ng/mL mouse interleukin-3 (mIL-3) (CST).
Upon evaluation of cell growth inhibitory activity, the Ba/F3-HER2insYVMA cells were suspended in an RPMI-1640 medium supplemented with 10% FBS, 100 U/mL penicillin, and 100 μg/mL streptomycin. The cell suspension was seeded in each well of a 96-well flat-bottom microplate, and was then cultured in a 5% carbon dioxide gas-containing culture vessel at 37° C. for 1 day. The compound (I) obtained according to the method in Synthesis Example 1 was dissolved in DMSO, and was then diluted with DMSO or the medium used in the suspension of the cells. The obtained solution was then added to each well of the culture plate, so that the final concentration of DMSO became 0.2%. […] After completion of the culture for 3 days in the presence of the compound, the cells were counted using CellTiter-Glo 2.0 (manufactured by Promega), and the growth inhibition percentage was then calculated according to the following equation. […]
Background: Cellular ATP, detected with luciferase, serves as a proxy for viable cell number.

The test system of data set [2] is Luciferase gene-introduced HER2 expressing cell line (NCI-N87-Luc). In words: Antitumor effect confirmation test (in vivo) on direct brain transplantation models. Details: species or system nude mouse (BALB/cAJcl-nu/nu). The note with it: 25 mg/kg/day oral, 21 days. The procedure: In order to confirm the antitumor effects of a test compound on direct brain transplantation models, NCI-N87-Luc, which was obtained by introducing a luciferase gene into NCI-N87 that was a human stomach cancer tumor cell line purchased from American Type Culture Collection, was used. The NCI-N87-Luc was added into a 10% fetal bovine serum (FBS)-containing RPMI-1640 medium (supplemented with 4.5 g/L glucose, 10 mM HEPES, and 1 mM sodium pyruvate) (Wako Pure Chemical Industries, Ltd.), and this cell line was then cultured in a 5% CO2 incubator at 37° C.
The NCI-N87-Luc cells were re-suspended in PBS in a concentration of 6.25×10^7 cells/mL. […]
As a reference of the amount of brain tumor, approximately 3 weeks after the transplantation, Total Flux (Photon/sec) was measured in all of the survival cases, using IVIS (PerkinElmer, Inc., model: Lumina II). […]
The value obtained by logarithmic transformation (Log 10) of the total flux on Day 22 in each group was analyzed by a significance test. […] A body weight change percentage (Body weight change; BWCn) from the body weight on the n^th day (BWn) was calculated according to the following equation: BWCn (%)=[(body weight on n^th day)−(body weight on grouping day)]/[(body weight on grouping day)]×100.

Turning to `C=CC(=O)N1C[C@H](n2c(C#CC3CC3)c(C(=O)N[C@H](C)c3ccccc3)c3c(N)ncnc32)C[C@@H]1C` [compound (I), 7-((3R,5S)-1-acryloyl-5-methylpyrrolidin-3-yl)-4-amino-6-(cyclopropylethynyl)-N—((R)-1-phenylethyl)-7H-pyrrolo[2,3-d]pyrimidine-5-carboxamide], the IC50 in data set [1] is 0.029 µM. In addition, the “body weight reduction of −20% or more” value in data set [2] (all mice) is listed as “not observed”. In addition, the “Log 10 of the total flux on Day 22 versus control group” value in data set [2] (once a day, significance level (both sides) 5%) is recorded as “statistically significantly lower”.
